IC50 and inhibition data for one compound are collected here from patent EP0877740B1, “THIOL DERIVATIVES WITH METALLOPEPTIDASE INHIBITORY ACTIVITY” (ZAMBON GROUP S.p.A., priority 1995, dated 1997).

Like-named read-outs stand apart in the source and are kept apart here.

In experiment [1] the target is T1, NEP (Rattus norvegicus, UniProt P07861).
T1 sequence (P07861 1-750): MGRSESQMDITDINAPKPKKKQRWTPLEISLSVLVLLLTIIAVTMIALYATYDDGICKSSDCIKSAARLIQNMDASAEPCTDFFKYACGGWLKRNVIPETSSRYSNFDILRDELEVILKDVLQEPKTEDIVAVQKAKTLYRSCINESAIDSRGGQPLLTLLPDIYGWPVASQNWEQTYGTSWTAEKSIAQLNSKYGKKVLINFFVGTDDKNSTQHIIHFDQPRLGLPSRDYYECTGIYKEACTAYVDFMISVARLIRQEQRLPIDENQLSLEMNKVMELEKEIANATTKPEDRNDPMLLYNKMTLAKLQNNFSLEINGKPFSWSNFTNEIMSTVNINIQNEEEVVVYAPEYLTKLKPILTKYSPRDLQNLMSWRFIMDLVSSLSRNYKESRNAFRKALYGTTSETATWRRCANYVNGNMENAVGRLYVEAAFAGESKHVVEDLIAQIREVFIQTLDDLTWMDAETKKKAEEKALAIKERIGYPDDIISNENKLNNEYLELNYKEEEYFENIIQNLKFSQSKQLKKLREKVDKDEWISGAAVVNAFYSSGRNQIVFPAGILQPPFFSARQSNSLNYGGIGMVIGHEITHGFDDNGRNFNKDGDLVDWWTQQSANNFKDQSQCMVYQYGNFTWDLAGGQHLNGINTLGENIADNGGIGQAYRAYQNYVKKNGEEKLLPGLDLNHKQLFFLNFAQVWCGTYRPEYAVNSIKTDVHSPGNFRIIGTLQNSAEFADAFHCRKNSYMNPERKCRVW
Briefly: In vitro NEP-inhibitory activity in rat kidney cortex membranes ([3H][Leu5]-enkephaline hydrolysis). It counts as biochemical. Also noted: Kidneys were removed from male Sprague-Dawley rats weighing approximately 300 g; from tissue; host or cells: rat kidney cortex membranes (male Sprague-Dawley). Conditions: [3H][Leu5]-enkephaline 15 nM, 30°C. As for the experimental part: The NEP-inhibitory activity was evaluated in rat kidney cortex membranes prepared according to the procedure described by T. Maeda et al. in Biochim. Biophys.
Kidneys were removed from male Sprague-Dawley rats weighing approximately 300 g and kept at 4°C.
Kidney cortex was carefully dissected, finely minced and suspended in a homogenization buffer (10 mM sodium phosphate pH 7.4 containing 1 mM MgCl2, 30 mM NaCl, 0.02% NaN3) 1:15 weight/volume.
The tissue was then cold homogenized for 30 seconds using an Ultra-Turrax homogenizer.
The membranes were collected from the buffer/sucrose interface, washed twice with 50 mM TRIS/HCl buffer (pH 7.4) and resuspended into the same buffer for storage in small aliquots at -80°C until use.
The NEP-inhibitory activity was evaluated by using the method described by C.
Aliquots of the membrane suspension prepared as above described (concentration 5 µg/ml of proteins) were preincubated in the presence of an aminopeptidase inhibitor (Bestatin - 1 mM) for 10 minutes at 30°C.
Incubation (20 minutes at 30°C) was stopped by adding HCI 0.1M (100 µl).
The formation of the metabolite [^3H]Tyr-Gly-Gly was quantified by chromatography on polystyrene columns (Porapak Q).
The percentage of inhibition of the metabolite formation in the membrane preparations treated with the compounds of formula I and with the comparative compounds with respect to the untreated membrane preparations was expressed as IC50 (nM) value.

Experiment [2] deals with T1, NEP. Briefly: Ex vivo NEP-inhibitory activity in kidney homogenates of treated SHR (GAAP substrate). Also noted: After the removal of the kidneys from SHR, the renal tissue was homogenized; from tissue; host or cells: kidney homogenate of spontaneously hypertensive rats (SHR); species or system spontaneously hypertensive rats (SHR). As to conditions: rat, SHR kidneys; for inhibition at 30 µmol/kg: oral 30 µmoles/kg. Here is the method:
The ex-vivo ACE/NEP-inhibitory activity, in particular, was determined by evaluating the enzymatic activity in tissue homogenates (lung and kidney for ACE and NEP activity, respectively) from spontaneously hypertensive rats (SHR) treated with the tested compounds by intravenous or oral route.
The ex vivo NEP-inhibitory activity was evaluated according to the procedure reported in the literature by M. Orlowsky et al., in Biochemistry 1981, 20, 4942-4950.
The inhibitory activity of the compounds of formula I was evaluated in kidneys of spontaneously hypertensive rats (SHR), 5 minutes after i.v. injection (0.6 and 21 µmoles/kg) and 30 minutes, 60 minutes and 4 hours after oral administration (30 µmoles/kg) of the tested compounds.
After the removal of the kidneys from SHR, the renal tissue was homogenized and incubated for 15 minutes at 37°C in the presence of Glutaryl-Ala-Ala-Phe-2-naphthylamide (GAAP), as a substrate, and aminopeptidase M at pH 7.6.
The reaction was stopped by adding an aqueous solution at 10% of trichloroacetic acid.
The released 2-naphthylamine was determined by adding fast garnet dye (2 ml).
Enzyme reaction rates were determined by measuring the increase in the optical density at 524 nm (OD524) with respect to a standard obtained with 2-naphthylamine complexed with fast garnet.
The NEP-inhibitory activity of the tested compounds was expressed as percentage of NEP-inhibition in SHR kidneys.

On to `O=C(N[C@@H](Cc1ccc(-c2nccs2)cc1)C(=O)O)[C@@H](CS)Cc1ccccc1` [Compound 16, N-[(2S)-3-mercapto-2-phenylmethylpropionyl]-4-(2-thiazolyl)-L-phenylalanine], for which half-maximal inhibition on NEP [1] (IC50) was put at 1.8 nM. This compound also yielded an inhibition at 0.6 µmol/kg on NEP [2] (iv, i.v. 0.6 µmoles/kg, 5 minutes after injection) of 34%. Also, the inhibition at 21 µmol/kg at NEP [2] (iv, i.v. 21 µmoles/kg, 5 minutes after injection) was determined as 49%. The inhibition at 30 µmol/kg at NEP [2] (30 minutes after administration, read-out: NEP-inhibition (kidneys) 30 minutes) is 55%; on NEP [2] (60 minutes after administration, read-out: NEP-inhibition (kidneys) 60 minutes) it was 39%; on NEP [2] (4 hours after administration, read-out: NEP-inhibition (kidneys) 4 hours), 40%.

The term IC50 denotes the concentration needed to halve the response being measured. By inhibition is commonly meant the drop in the measured response relative to a control, in per cent.
